Consider 15 compounds from patent publication US7722876B2 (priority 2002, dated 2010).

As usually defined, the IC50 is the concentration at which inhibition is half-maximal.

Where a SMILES comes first, the peptide text is derived from it. Bounds are passed on as bounds.

For one data set, the system named is C.albicans UP10 cells. The following applies: 6 h.
Compound `CC(C)[C@H](NC(=O)CNC(=O)[C@H](Cc1ccc(O)cc1)NC(=O)CN)C(=O)N[C@@H](CC(N)=O)C(N)=O` [Heavy chain CDR-1] (H-GYGVN-NH2; N-terminus and C-terminus assumed) had a concentration for half-maximal inhibition (IC50) of 267 nM. Regarding `CC[C@H](C)[C@H](NC(=O)[C@@H](N)CCSC)C(=O)N[C@@H](Cc1c[nH]c2ccccc12)C(=O)NCC(=O)N[C@@H](CC(=O)O)C(=O)NCC(=O)N[C@@H](CO)C(=O)N[C@H](C(=O)N[C@@H](CC(=O)O)C(=O)N[C@@H](Cc1ccc(O)cc1)C(=O)N[C@@H](CC(N)=O)C(=O)N[C@@H](CO)C(=O)N[C@@H](C)C(=O)N[C@@H](CC(C)C)C(N)=O)[C@@H](C)O` [Heavy chain CDR-2] (H-MIWGDGSTDYNSAL-NH2; N-terminus and C-terminus assumed), the IC50 amounted to 117 nM. Compound `CSCC[C@H](NC(=O)[C@H](C)NC(=O)[C@H](Cc1ccc(O)cc1)NC(=O)[C@@H](N)CC(C)C)C(N)=O` [Heavy chain CDR-3] (H-LYAM-NH2; N-terminus and C-terminus assumed) showed a half-inhibitory concentration (IC50) of 109 nM. Still for that read-out and setting: for `CSCC[C@H](NC(=O)[C@H](Cc1ccc(O)cc1)NC(=O)[C@H](CO)NC(=O)[C@@H](NC(=O)[C@H](CO)NC(=O)[C@H](CO)NC(=O)[C@H](CO)NC(=O)[C@H](C)NC(=O)[C@@H](N)CO)C(C)C)C(=O)N[C@@H](Cc1ccc(O)cc1)C(N)=O` [Light chain CDR-1] (H-SASSSVSYMY-NH2; N-terminus and C-terminus assumed) the value was 692 nM; for `CC(C)C[C@H](NC(=O)[C@H](CC(N)=O)NC(=O)[C@H](CO)NC(=O)[C@@H](NC(=O)[C@@H](N)CC(C)C)[C@@H](C)O)C(=O)N[C@@H](C)C(=O)N[C@@H](CO)C(N)=O` [Light chain CDR-2] (H-LTSNLAS-NH2; N-terminus and C-terminus assumed), 234 nM; for `NC(=O)CC[C@H](NC(=O)[C@@H](N)CCC(N)=O)C(=O)N[C@@H](Cc1c[nH]c2ccccc12)C(=O)N[C@@H](CO)C(=O)N[C@@H](CO)C(=O)N[C@@H](CC(N)=O)C(=O)N1CCC[C@H]1C(=O)N[C@@H](Cc1ccc(O)cc1)C(N)=O` [Light chain CDR-3] (H-QQWSSNPY-NH2; N-terminus and C-terminus assumed), 200 nM.

On to `CSCC[C@H](NC(=O)[C@@H](NC(=O)[C@@H](NC(=O)[C@H](CCCCN)NC(=O)[C@H](C)N)C(C)C)[C@@H](C)O)C(=O)N[C@H](C(=O)N[C@@H](CS)C(=O)N[C@@H](CO)C(=O)N[C@@H](C)C(N)=O)[C@@H](C)O` [SEQ ID 14] (H-AKVTMTCSA-NH2; N-terminus and C-terminus assumed), for which the IC50 was found to be 50000 nM. The same measure, in the same setting: for `CSCC[C@H](NC(=O)[C@@H](NC(=O)[C@@H](NC(=O)[C@H](CCCCN)NC(=O)[C@H](C)N)C(C)C)[C@@H](C)O)C(=O)N[C@H](C(=O)N[C@@H](CS)C(=O)N[C@@H](CO)C(N)=O)[C@@H](C)O` [SEQ ID 15] (H-AKVTMTCS-NH2; N-terminus and C-terminus assumed) the value was 23000 nM; for `CSCC[C@H](NC(=O)[C@@H](NC(=O)[C@@H](NC(=O)[C@H](CCCCN)NC(=O)[C@H](C)N)C(C)C)[C@@H](C)O)C(=O)N[C@H](C(=O)N[C@@H](CS)C(N)=O)[C@@H](C)O` [SEQ ID 16] (H-AKVTMTC-NH2; N-terminus and C-terminus assumed), 600 nM; for `CSCC[C@H](NC(=O)[C@@H](NC(=O)[C@@H](NC(=O)[C@H](CCCCN)NC(=O)[C@H](C)N)C(C)C)[C@@H](C)O)C(=O)N[C@H](C(N)=O)[C@@H](C)O` [SEQ ID 17] (H-AKVTMT-NH2; N-terminus and C-terminus assumed), 730000 nM. On the same count and under the same terms, for `CSCC[C@H](NC(=O)[C@@H](NC(=O)[C@@H](NC(=O)[C@H](CCCCN)NC(=O)[C@H](C)N)C(C)C)[C@@H](C)O)C(N)=O` [SEQ ID 18] (H-AKVTM-NH2; N-terminus and C-terminus assumed) the value was 25000 nM; for `CC(C)[C@H](NC(=O)[C@H](CCCCN)NC(=O)[C@H](C)N)C(=O)N[C@H](C(N)=O)[C@@H](C)O` [SEQ ID 19] (H-AKVT-NH2; N-terminus and C-terminus assumed), 710000 nM.

As for `CC(C)[C@H](NC(=O)[C@H](CCCCN)NC(=O)[C@H](C)N)C(N)=O` [SEQ ID 20] (H-Ala-Lys-Val-NH2; N-terminus and C-terminus assumed), the IC50 is 10000 nM.

The test system of another data set is LLC-MK2 rhesus monkey kidney cells.
Conditions: not given
With `CSCC[C@H](NC(=O)[C@@H](NC(=O)[C@@H](NC(=O)[C@H](CCCCN)NC(=O)[C@H](C)N)C(C)C)[C@@H](C)O)C(=O)N[C@H](C(=O)N[C@@H](CS)C(=O)N[C@@H](CO)C(=O)N[C@@H](C)C(=O)N[C@@H](CO)C(N)=O)[C@@H](C)O` [KM] (H-AKVTMTCSAS-NH2), the “toxic effects on cell viability” value was “no toxic effects”.

For another data set, the system named is fluconazole-resistant (AIDS 68) C.albicans. The format is in vivo, Candida albicans. To be noted: day 0; rats; 100 μg fluconazole at 1, 24, 48 h.
For the compound `OC(Cn1cncn1)(Cn1cncn1)c1ccc(F)cc1F` [fluconazole], the “C. albicans vaginal CFU (×10^3) (±SD)” value is listed as >100 ×10^3.

Still in this data set, the particulars now being: day 7; rats; 100 μg fluconazole at 1, 24, 48 h.
Regarding `OC(Cn1cncn1)(Cn1cncn1)c1ccc(F)cc1F` [fluconazole], the “C. albicans vaginal CFU (×10^3) (±SD)” value is 64 ± 6 ×10^3.

The data set is the same for the next values; noted with them: day 14; rats; 100 μg fluconazole at 1, 24, 48 h.
Take `OC(Cn1cncn1)(Cn1cncn1)c1ccc(F)cc1F` [fluconazole]: the “C. albicans vaginal CFU (×10^3) (±SD)” value is reported as 48 ± 3 ×10^3.

Staying with this data set, now noted: day 28; rats; 100 μg fluconazole at 1, 24, 48 h.
As for `OC(Cn1cncn1)(Cn1cncn1)c1ccc(F)cc1F` [fluconazole], the “C. albicans vaginal CFU (×10^3) (±SD)” value was 12 ± 4 ×10^3.
